Where “and” joins values, the source holds several entries; their conditions need not be identical. Equal values may be shown once.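 Assay format: 96-well plates, 48-hour exposure. At the GI50, growth is halved. TGI: total growth inhibition.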
How the values were obtained:
Assay in all cases: NCI tumour cell line growth inhibition, 48 h
OVCAR-4 ovarian = test system: OVCAR-4 ovarian
MDA-MB-231 breast = test system: MDA-MB-231 breast
HL-60(TB) leukemia = test system: HL-60(TB) leukemia
UACC-62 melanoma = test system: UACC-62 melanoma
DMS 114 small cell lung = test system: DMS 114 small cell lung
T-47D breast = test system: T-47D breast
UO-31 renal = test system: UO-31 renal
MALME-3M melanoma = test system: MALME-3M melanoma
SF-295 CNS = test system: SF-295 CNS
PC-3 prostate = test system: PC-3 prostate
KM20L2 colon = test system: KM20L2 colon
OVCAR-3 ovarian = test system: OVCAR-3 ovarian
HCT-15 colon = test system: HCT-15 colon
NCI-H226 lung = test system: NCI-H226 lung
786-0 renal = test system: 786-0 renal
RXF 393 renal = test system: RXF 393 renal
BT-549 breast = test system: BT-549 breast
M14 melanoma = test system: M14 melanoma
SN12C renal = test system: SN12C renal
KM12 colon = test system: KM12 colon
HCC-2998 colon = test system: HCC-2998 colon
COLO 205 colon = test system: COLO 205 colon
NCI-H23 lung = test system: NCI-H23 lung
SK-OV-3 ovarian = test system: SK-OV-3 ovarian
SF-539 CNS = test system: SF-539 CNS
MCF7 breast = test system: MCF7 breast
NCI/ADR-RES ovarian = test system: NCI/ADR-RES ovarian
EKVX NSCLC = test system: EKVX NSCLC
MDA-N = test system: MDA-N
HOP-92 NSCLC = test system: HOP-92 NSCLC
HOP-18 NSCLC = test system: HOP-18 NSCLC
P388/ADR leukemia = test system: P388/ADR leukemia
SR leukemia = test system: SR leukemia
OVCAR-5 ovarian = test system: OVCAR-5 ovarian
A549 NSCLC = test system: A549 NSCLC
DU-145 prostate = test system: DU-145 prostate
LOX IMVI melanoma = test system: LOX IMVI melanoma
SF-268 CNS = test system: SF-268 CNS
HOP-62 NSCLC = test system: HOP-62 NSCLC
TK-10 renal = test system: TK-10 renal
NCI-H522 lung = test system: NCI-H522 lung
SW-620 colon = test system: SW-620 colon
SK-MEL-5 melanoma = test system: SK-MEL-5 melanoma
OVCAR-8 ovarian = test system: OVCAR-8 ovarian
ACHN renal = test system: ACHN renal
SNB-19 CNS = test system: SNB-19 CNS
MDA-MB-435 = test system: MDA-MB-435
U251 CNS = test system: U251 CNS
XF 498 CNS = test system: XF 498 CNS
UACC-257 melanoma = test system: UACC-257 melanoma
DLD-1 colon = test system: DLD-1 colon
A498 renal = test system: A498 renal

O=CC(NC(=O)N(CCCl)N=O)C(O)C(O)C(O)CO (centres undefined)
GI50 (OVCAR-4 ovarian): > 625 µM
TGI (OVCAR-4 ovarian): > 1250 µM
TGI (MDA-MB-231 breast): > 1250 µM
GI50 (HL-60(TB) leukemia): 144 µM and 420 µM
TGI (HL-60(TB) leukemia): 625 µM and > 1250 µM and 1070 µM
GI50 (UACC-62 melanoma): 18.5 µM
TGI (UACC-62 melanoma): 185 µM and > 1250 µM and 939 µM
GI50 (DMS 114 small cell lung): 218 µM and > 1250 µM
TGI (DMS 114 small cell lung): 625 µM and > 1250 µM
TGI (T-47D breast): > 1250 µM
TGI (UO-31 renal): > 1250 µM
GI50 (MALME-3M melanoma): 131 µM
TGI (MALME-3M melanoma): 543 µM and 767 µM
GI50 (SF-295 CNS): 31.5 µM
TGI (SF-295 CNS): 625 µM and 764 µM
TGI (PC-3 prostate): > 1250 µM
GI50 (KM20L2 colon): > 625 µM
TGI (KM20L2 colon): > 1250 µM
GI50 (OVCAR-3 ovarian): > 625 µM
TGI (OVCAR-3 ovarian): > 1250 µM
GI50 (HCT-15 colon): > 625 µM
TGI (HCT-15 colon): > 1250 µM
GI50 (NCI-H226 lung): 73.1 µM
TGI (NCI-H226 lung): 625 µM and > 1250 µM
TGI (786-0 renal): 593 µM
GI50 (RXF 393 renal): 417 µM
TGI (RXF 393 renal): 625 µM and > 1250 µM
TGI (BT-549 breast): > 1250 µM
TGI (M14 melanoma): > 1250 µM
GI50 (SN12C renal): 206 µM and > 1250 µM
TGI (SN12C renal): 625 µM and > 1250 µM
GI50 (KM12 colon): 541 µM
TGI (KM12 colon): 625 µM and > 1250 µM
GI50 (HCC-2998 colon): > 625 µM
TGI (HCC-2998 colon): > 1250 µM
GI50 (COLO 205 colon): > 625 µM
TGI (COLO 205 colon): > 1250 µM
GI50 (NCI-H23 lung): 233 µM and > 1250 µM
TGI (NCI-H23 lung): 625 µM and > 1250 µM
GI50 (SK-OV-3 ovarian): 279 µM
TGI (SK-OV-3 ovarian): 576 µM and > 1250 µM
GI50 (SF-539 CNS): 40 µM and 255 µM
TGI (SF-539 CNS): 483 µM and > 1250 µM and 614 µM
GI50 (MCF7 breast): 485 µM
TGI (MCF7 breast): 625 µM and > 1250 µM
GI50 (NCI/ADR-RES ovarian): 499 µM and > 1250 µM
TGI (NCI/ADR-RES ovarian): 625 µM and > 1250 µM
GI50 (EKVX NSCLC): > 625 µM
TGI (EKVX NSCLC): > 1250 µM
TGI (MDA-N): > 1220 µM
GI50 (HOP-92 NSCLC): 377 µM and > 1250 µM and 362 µM
TGI (HOP-92 NSCLC): 625 µM and > 1250 µM and > 1230 µM
GI50 (HOP-18 NSCLC): > 625 µM
TGI (HOP-18 NSCLC): > 1250 µM
GI50 (P388/ADR leukemia): 34.5 µM and 65 µM
TGI (P388/ADR leukemia): 360 µM and > 1250 µM
TGI (SR leukemia): > 623 µM
GI50 (OVCAR-5 ovarian): > 625 µM
TGI (OVCAR-5 ovarian): > 1250 µM
GI50 (A549 NSCLC): 162 µM and 584 µM
TGI (A549 NSCLC): 625 µM and > 1250 µM
TGI (DU-145 prostate): > 1250 µM
GI50 (LOX IMVI melanoma): 50 µM and 303 µM and 78.7 µM
TGI (LOX IMVI melanoma): 384 µM and > 1250 µM and 661 µM
GI50 (SF-268 CNS): 19.8 µM and 137 µM
GI50 (HOP-62 NSCLC): 115 µM
TGI (HOP-62 NSCLC): 536 µM and 422 µM
TGI (TK-10 renal): > 1250 µM
GI50 (NCI-H522 lung): > 625 µM
TGI (NCI-H522 lung): > 1250 µM
GI50 (SW-620 colon): 171 µM and > 1250 µM
TGI (SW-620 colon): 625 µM and > 1250 µM
GI50 (SK-MEL-5 melanoma): 161 µM
TGI (SK-MEL-5 melanoma): 625 µM and 647 µM
GI50 (OVCAR-8 ovarian): > 625 µM and 587 µM
TGI (OVCAR-8 ovarian): > 1250 µM
TGI (ACHN renal): > 1250 µM
GI50 (SNB-19 CNS): 62.6 µM and 384 µM
TGI (SNB-19 CNS): 625 µM and > 1250 µM
TGI (MDA-MB-435): > 1250 µM
GI50 (U251 CNS): 69.2 µM and 105 µM
TGI (U251 CNS): 625 µM and > 1250 µM
TGI (XF 498 CNS): 415 µM and > 1250 µM
GI50 (UACC-257 melanoma): > 625 µM
TGI (UACC-257 melanoma): > 1250 µM
GI50 (DLD-1 colon): > 625 µM
TGI (DLD-1 colon): > 1250 µM
GI50 (A498 renal): > 1250 µM
TGI (A498 renal): > 1250 µM
